Molecular target: SARS2 protease (Severe acute respiratory syndrome coronavirus 2, UniProt P0DTD1)
Experiment: SARS-CoV-2 protease inhibition assay (SARS2 FRET protease assay)
Type: biochemical
Conditions: SARS-CoV-2 protease 25 nM, FRET, peptide substrate 1.3 μM, 30 minutes at 30° C., compounds 20 μM to 1.0 nM; read-out: IC50

Row | Structure (SMILES) | IC50
1 | CS(=O)(=O)N1CCC2(CC1)CC(C[C@H](NC(=O)[C@H](CC1CCCCC1)NC(=O)OCc1cccc(Cl)c1)C(=O)C(=O)NC1CC1)C(=O)N2 (stereo partly drawn) [Compound C170, 3-Chlorobenzyl ((2S)-3-cyclohexyl-1-(((2S)-4-(cyclopropylamino)-1-(8-(methylsulfonyl)-2-oxo-1,8-diazaspiro[4.5]decan-3-yl)-3,4-dioxobutan-2-yl)amino)-1-oxopropan-2-yl)carbamate] | 1840 nM
2 | CC(=O)N1CCC2(CC1)CC(CC(C=O)NC(=O)[C@H](CC1CCCCC1)NC(=O)c1cc3ccccc3[nH]1)C(=O)N2 (stereo partly drawn) [Compound C75, N-((2S)-1-((1-(8-acetyl-2-oxo-1,8-diazaspiro[4.5]decan-3-yl)-3-oxopropan-2-yl)amino)-3-cyclohexyl-1-oxopropan-2-yl)-1H-indole-2-carboxamide] | 1.2 nM
3 | CC(=O)N1CCC2(CC1)C[C@@H](C[C@H](NC(=O)[C@H](CC1CCCCC1)NC(=O)c1cc3ccccc3[nH]1)C(=O)C(N)=O)C(=O)N2 [Compound C121, N—((S)-1-(((S)-1-((R)-8-acetyl-2-oxo-1,8-diazaspiro[4.5]decan-3-yl)-4-amino-3,4-dioxobutan-2-yl)amino)-3-cyclohexyl-1-oxopropan-2-yl)-1H-indole-2-carboxamide] | 178 nM
4 | CCOP(=O)(OCC)C(O)C(CC1CC2(CCN(C(C)=O)CC2)NC1=O)NC(=O)[C@H](CC1CCCCC1)NC(=O)c1cc2ccccc2[nH]1 (stereo partly drawn) [Compound C81, Diethyl (3-(8-acetyl-2-oxo-1,8-diazaspiro[4.5]decan-3-yl)-2-((S)-3-cyclohexyl-2-(1H-indole-2-carboxamido)propanamido)-1-hydroxypropyl)phosphonate] | 200 nM
5 | CCCC[C@H](NC(=O)OC(c1ccccc1)C(C)(C)c1cccc(Cl)c1)C(=O)N[C@@H](CC1CCNC1=O)C(=O)C(N)=O (stereo partly drawn) [Compound C164, 2-(3-Chlorophenyl)-2-methyl-1-phenylpropyl ((S)-1-(((S)-4-amino-3,4-dioxo-1-((S)-2-oxopyrrolidin-3-yl)butan-2-yl)amino)-1-oxohexan-2-yl) carbamate] | 144 nM
6 | CC(C)(c1cccc(Cl)c1)C(OC(=O)N[C@@H](CC1CCCCC1)C(=O)N[C@H](C=O)C[C@@H]1CCNC1=O)c1ccc(F)cc1 (stereo partly drawn) [Compound C137, 2-(3-Chlorophenyl)-1-(4-fluorophenyl)-2-methylpropyl ((S)-3-cyclohexyl-1-oxo-1-(((S)-1-oxo-3-((S)-2-oxopyrrolidin-3-yl)propan-2-yl)amino)propan-2-yl) carbamate] | 43.6 nM
7 | CC(C)C[C@H](NC(=O)OC(Cc1ccccc1)c1ccccc1)C(=O)N[C@@H](C[C@@H]1CCNC1=O)C(=O)C(N)=O (stereo partly drawn) [Compound C100, 1,2-Diphenylethyl ((S)-1-(((S)-4-amino-3,4-dioxo-1-((S)-2-oxopyrrolidin-3-yl)butan-2-yl)amino)-4-methyl-1-oxopentan-2-yl)carbamate] | 1000 nM
8 | CCOP(=O)(OCC)C(O)[C@H](CCC(=O)N1CCOc2ccccc2C1)NC(=O)[C@H](CC1CCCCC1)NC(=O)OC1CCN(S(C)(=O)=O)CC1 (stereo partly drawn) [Compound C28, 1-(Methylsulfonyl) piperidin-4-yl((2S)-3-cyclohexyl-1-(((2S)-1-(diethoxyphosphoryl)-5-(2,3-dihydrobenzo[f][1,4]oxazepin-4(5H)-yl)-1-hydroxy-5-oxopentan-2-yl)amino)-1-oxopropan-2-yl)carbamate] | > 200000 nM
9 | CC(C)C[C@H](NC(=O)OC1(Cc2ccccc2)CC1)C(=O)N[C@H](C=O)C[C@@H]1CCNC1=O [Compound C44, 1-Benzylcyclopropyl ((S)-4-methyl-1-oxo-1-(((S)-1-oxo-3-((S)-2-oxopyrrolidin-3-yl)propan-2-yl)amino)pentan-2-yl) carbamate] | 331 nM
10 | CC(C)C[C@H](NC(=O)OC(c1cccc(Cl)c1)C1(c2cccc(Cl)c2)CC1)C(=O)N[C@H](C=O)C[C@@H]1CCNC1=O (stereo partly drawn) [Compound C203, (3-chlorophenyl)(1-(3-chlorophenyl)cyclopropyl)methyl ((S)-4-methyl-1-oxo-1-(((S)-1-oxo-3-((S)-2-oxopyrrolidin-3-yl)propan-2-yl)amino)pentan-2-yl)carbamate] | 10.5 nM
11 | CC(C)(c1cccc(Cl)c1)C(OC(=O)N[C@@H](CC1CCCCC1)C(=O)N[C@@H](C[C@@H]1CCNC1=O)C(=O)C(=O)N1CCCC1)c1ccc2ccccc2c1 (stereo partly drawn) [Compound C150, 2-(3-Chlorophenyl)-2-methyl-1-(naphthalen-2-yl)propyl ((S)-3-cyclohexyl-1-(((S)-3,4-dioxo-1-((S)-2-oxopyrrolidin-3-yl)-4-(pyrrolidin-1-yl)butan-2-yl)amino)-1-oxopropan-2-yl)carbamate] | > 20000 nM
12 | CC(C)C[C@H](NC(=O)OC(c1ccc(F)cc1)C(C)(C)c1cccc(Cl)c1)C(=O)N[C@H](C=O)C[C@@H]1CCNC1=O (stereo partly drawn) [Compound C238, 2-(3-chlorophenyl)-1-(4-fluorophenyl)-2-methylpropyl ((S)-4-methyl-1-oxo-1-(((S)-1-oxo-3-((S)-2-oxopyrrolidin-3-yl)propan-2-yl)amino)pentan-2-yl)carbamate] | 0.1 nM
13 | O=C(N[C@@H](CC1CCCCC1)C(=O)N[C@@H](C[C@@H]1CCNC1=O)C(=O)C(=O)NC1CC1)OCc1cccc(Cl)c1 [Compound C173] | 1430 nM
14 | CCOP(=O)(OCC)C(O)C(CC1CC2(CCN(C(C)=O)CC2)NC1=O)NC(=O)[C@H](Cc1cccc(F)c1)NC(=O)OCc1cccc(Cl)c1 (stereo partly drawn) [Compound C82, 3-Chlorobenzyl ((2S)-1-((3-(8-acetyl-2-oxo-1,8-diazaspiro[4.5]decan-3-yl)-1-(diethoxyphosphoryl)-1-hydroxypropan-2-yl)amino)-3-(3-fluorophenyl)-1-oxopropan-2-yl)carbamate] | 4400 nM
15 | CC1(C)CC(CC(NC(=O)[C@H](CC2CCCCC2)NC(=O)OC(Cc2cccc(Cl)c2)c2ccccc2)C(=O)C(=O)NC2CC2)C(=O)N1 (stereo partly drawn) [Compound C155, 2-(3-Chlorophenyl)-1-phenylethyl ((2S)-3-cyclohexyl-1-((4-(cyclopropylamino)-1-(5,5-dimethyl-2-oxopyrrolidin-3-yl)-3,4-dioxobutan-2-yl)amino)-1-oxopropan-2-yl) carbamate] | 1560 nM
16 | O=C(N[C@@H](Cc1ccccc1)C(=O)N[C@@H](C[C@@H]1CCNC1=O)C(=O)C(=O)NC1CC1)OC1CCCC1Cc1cccc(Cl)c1 (stereo partly shown) [Compound C146] | > 20000 nM
17 | CN(CCc1ccccc1)C(=O)CC[C@@H](C=O)NC(=O)[C@H](CC1CCCCC1)NC(=O)OC1(c2cccc(Cl)c2)CC1 [Compound C10, 1-(3-Chlorophenyl) cyclopropyl ((S)-3-cyclohexyl-1-(((S)-5-(methyl (phenethyl)amino)-1,5-dioxopentan-2-yl)amino)-1-oxopropan-2-yl) carbamate] | > 200000 nM
18 | CC(C)C[C@H](NC(=O)OC(c1ccccc1)C(C)(C)c1cccc(Cl)c1)C(=O)N[C@@H](C[C@@H]1CCNC1=O)C(=O)C(=O)N1CCNCC1 (stereo partly shown) [Compound C274] | 12000 nM
19 | CC(C)C[C@H](NC(=O)OC(Cc1ccccc1)c1ccccc1)C(=O)N[C@H](C=O)C[C@@H]1CCNC1=O (stereo partly drawn) [Compound C38, 1,2-Diphenylethyl ((S)-4-methyl-1-oxo-1-(((S)-1-oxo-3-((S)-2-oxopyrrolidin-3-yl)propan-2-yl)amino)pentan-2-yl)carbamate] | 16 nM

Source: patent US20230159453A1 (COCRYSTAL PHARMA, INC., priority 2020, published 2023)
